Laboratory results as given in patent publication US20250059174A1, “Pharmaceutical Compounds and Compositions as C-Kit Kinase Inhibitors” (Enanta Pharmaceuticals, Inc., priority 2023, published 2025).

Legend:
[1] = biological target: Recombinant human c-KIT kinase (Homo sapiens (Human), UniProt P10721); assay: c-KIT kinase chemiluminescence assay (ADP-Glo); format: biochemical; details: ATP 50 μM
Procedure, shortened: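 Recombinant human c-KIT preincubated 30 min at RT in 40 mM Tris pH 7.5, 20 mM MgCl2, 0.1 mg/mL BSA, 50 μM DTT, then reacted 2 h at RT with ATP and polyEY substrate. ADP-Glo luminescence readout; activity normalized to high/low controls, IC50 and Hill coefficient from inhibitor-versus-normalized-response fit.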

M-07e cells = assay: M-07e cellular assay (SCF-mediated cell proliferation); format: cell-based; details: Homo sapiens, 72 hours, CellTiter Glo
Procedure, shortened: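 EC50 values reflect inhibition of SCF-driven proliferation, with SCF at EC90 and a 72 h compound exposure, measured as CellTiter Glo luminescence. Growth is scaled between no-SCF (0%) and untreated (100%) wells.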

Chain of Recombinant human c-KIT kinase (P10721 26-976): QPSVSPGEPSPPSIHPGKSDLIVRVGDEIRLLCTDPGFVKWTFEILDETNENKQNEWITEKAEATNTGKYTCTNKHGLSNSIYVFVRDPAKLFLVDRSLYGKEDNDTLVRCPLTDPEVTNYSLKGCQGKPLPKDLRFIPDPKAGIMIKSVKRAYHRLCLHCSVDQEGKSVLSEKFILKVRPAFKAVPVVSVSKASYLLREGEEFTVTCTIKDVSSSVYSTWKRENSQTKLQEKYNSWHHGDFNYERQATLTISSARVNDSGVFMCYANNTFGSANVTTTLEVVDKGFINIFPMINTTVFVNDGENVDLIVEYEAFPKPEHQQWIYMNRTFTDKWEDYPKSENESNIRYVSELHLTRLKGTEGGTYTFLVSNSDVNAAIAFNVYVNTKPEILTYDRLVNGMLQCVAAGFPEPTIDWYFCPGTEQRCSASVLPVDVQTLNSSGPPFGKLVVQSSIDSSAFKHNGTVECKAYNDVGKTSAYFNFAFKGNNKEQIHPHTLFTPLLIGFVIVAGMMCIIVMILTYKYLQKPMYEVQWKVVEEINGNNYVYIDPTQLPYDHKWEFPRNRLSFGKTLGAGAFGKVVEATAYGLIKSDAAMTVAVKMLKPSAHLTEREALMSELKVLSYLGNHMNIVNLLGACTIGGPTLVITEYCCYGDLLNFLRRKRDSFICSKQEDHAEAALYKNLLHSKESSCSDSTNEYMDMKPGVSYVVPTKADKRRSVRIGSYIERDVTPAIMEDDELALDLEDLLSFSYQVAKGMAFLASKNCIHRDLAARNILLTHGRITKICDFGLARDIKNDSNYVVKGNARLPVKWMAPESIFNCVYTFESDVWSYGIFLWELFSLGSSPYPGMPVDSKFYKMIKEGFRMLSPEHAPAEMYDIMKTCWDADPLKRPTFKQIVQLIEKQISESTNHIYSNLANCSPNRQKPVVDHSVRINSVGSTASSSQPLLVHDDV

| IC50 [1] [nM] | Structure (SMILES) | EC50 (M-07e cells) [nM] |
| --- | --- | --- |
| 100 to 1000 | Cc1ccc(-c2noc([C@H]3C[C@@H]3F)n2)cc1NC(=O)c1cnc(-c2ccc3c(c2)C2(CC2)C(=O)N3)o1 [Example 308-4] | 100 to 1000 |
| < 100 | Cc1ccc(-c2noc(N3CC(O)(C(F)(F)F)C3)n2)cc1NC(=O)c1cnn2ccc(N3CC4(COC4)C3)cc12 [Example 281-82] | < 100 |
| < 100 | Cc1ccc(-c2noc([C@H]3C[C@@H]3F)n2)cc1NC(=O)c1cnn2ccc(-c3ccc(C#N)nc3C)cc12 [Example 171-16] | < 100 |
| < 100 | Cc1ccc(-c2noc([C@H]3C[C@@H]3F)n2)cc1NC(=O)c1cnn2ccc(-c3ccc(N4CC(F)(F)C4)nc3C)cc12 [Example 171-17] | < 100 |
| < 100 | Cc1ccc(-c2noc([C@@H]3C[C@H]3C(F)F)n2)cc1NC(=O)c1cnn2ccc(N3CC4(COC4)C3)cc12 [Example 281-1] | < 100 |
| < 100 | Cc1ccc(-c2noc([C@H]3C[C@@H](OC(F)F)C3)n2)cc1NC(=O)c1cnn2ccc(N3CC4(C3)CC(O)(C(F)(F)F)C4)cc12 [Example 281-22] | < 100 |
| > 1000 | Cc1ncc(-c2noc(C3CN(C(=O)C4(F)CC4)C3)n2)cc1NC(=O)c1cnn2ccc(N3CC4(C3)CC(O)(C(F)F)C4)cc12 [Example 281-84] | 100 to 1000 |
| > 1000 | Cc1ncc(-c2noc([C@H]3C[C@@H]3F)n2)cc1NC(=O)c1cnc(-c2ccc3c(c2)CC(=O)N3)o1 [Example 308-12] | 100 to 1000 |
| < 100 | COC(=O)N1CC(c2nc(-c3ccc(C)c(NC(=O)c4cnn5ccc(N6CC7(C6)CC(O)(C(F)F)C7)cc45)c3)no2)C1 [Example 281-53] | < 100 |
| < 100 | COC(=O)N1CC(c2nc(-c3ccc(C)c(NC(=O)c4cnn5ccc(N6CC7(COC7)C6)cc45)c3)no2)C1 [Example 281-43] | < 100 |
| < 100 | COC(=O)N1CC(c2nc(-c3cc(NC(=O)c4cnn5ccc(N6CC7(COC7)C6)cc45)c(C)cc3F)no2)C1 [Example 281-48] | 100 to 1000 |
| < 100 | Cc1ccc(-c2noc([C@H]3C[C@@H]3F)n2)cc1NC(=O)c1cnn2ccc(C3CC4(C3)CC(F)(F)C4)cc12 [Example 167-1] | < 100 |
| < 100 | Cc1ccc(-c2noc([C@H]3C[C@@H]3F)n2)cc1NC(=O)c1cnn2ccc(-c3cnccn3)cc12 [Example 171-9] | < 100 |
| 100 to 1000 | Cc1ccc(-c2noc([C@H]3C[C@@H]3F)n2)cc1NC(=O)c1cnc(-c2ccc3[nH]c(C#N)cc3c2)o1 [Example 308-1] | 100 to 1000 |
| 100 to 1000 | Cc1ccc(-c2noc([C@H]3C[C@@H]3F)n2)cc1NC(=O)c1cnc(-c2cccc3cc[nH]c23)o1 [Example 308-41] | > 1000 |
| < 100 | Cc1ccc(-c2noc([C@H]3C[C@@H]3F)n2)cc1NC(=O)c1cnc(-c2cccc3[nH]ncc23)o1 [Example 308-43] | 100 to 1000 |
| 100 to 1000 | Cc1ncc(-c2noc([C@H]3C[C@](O)(C(F)F)C3)n2)cc1NC(=O)c1cnn2ccc(N3CC4(C3)CC(O)(C(F)F)C4)cc12 [Example 281-37] | 100 to 1000 |
| 100 to 1000 | Cc1nc(C)c(-c2ccn3ncc(C(=O)Nc4cc(-c5noc([C@H]6C[C@@H]6F)n5)ccc4C)c3c2)c(C)n1 [Example 171-4] | 100 to 1000 |
| > 1000 | CC(=O)N1CCC(c2nc(-c3cnc(C)c(NC(=O)c4cnn5ccc(N6CC7(COC7)C6)cc45)c3)no2)C1 (stereo not drawn) [Example 281-74] | > 1000 |
| < 100 | Cc1ccc(-c2noc([C@H]3C[C@@H]3F)n2)cc1NC(=O)c1cnn2ccc(N3CC(CO)(CO)C3)cc12 [Example 241-3] | < 100 |
| 100 to 1000 | Cc1ccc(-c2noc([C@H]3C[C@@H]3F)n2)cc1NC(=O)c1cnc(-c2ccc3cn(C)nc3c2)o1 [Example 308-31] | 100 to 1000 |

Second part, the compound before the results:

| Structure (SMILES) | IC50 [1] [nM] | EC50 (M-07e cells) [nM] |
| --- | --- | --- |
| Cc1ccc(-c2ccc(C3CC3)nn2)cc1NC(=O)c1cnn2ccc(N3CC4(COC4)C3)cc12 [Example 343] | < 100 | < 100 |
| Cc1ccc2c(C(=O)Nc3cc(-c4noc([C@H]5C[C@@H]5F)n4)ccc3C)cnn2c1 [Example 61] | < 100 | < 100 |
| COCCn1cc(-c2ccn3ncc(C(=O)Nc4cc(-c5noc([C@H]6C[C@@H]6F)n5)ccc4C)c3c2)cn1 [Example 153] | < 100 | < 100 |
| Cc1ncc(-c2ncc(OC(F)F)cn2)cc1NC(=O)c1cnc(-c2ccc3c(c2)CC(=O)N3)o1 [Example 362] | 100 to 1000 | 100 to 1000 |
| Cc1ccc(-c2noc([C@H]3C[C@@H](OC(F)(F)F)C3)n2)nc1NC(=O)c1cnn2ccc(N3CC4(COC4)C3)cc12 [Example 267] | 100 to 1000 | 100 to 1000 |
| Cc1ccc(-c2noc([C@H]3C[C@@H]3F)n2)cc1NC(=O)c1cnc(-c2ccc3[nH]c4ccccc4c3c2)o1 [Example 303] | 100 to 1000 | 100 to 1000 |
| Cc1ccc(-c2cnc(OC(F)F)nc2)cc1NC(=O)c1cnn2ccc(N3CC4(COC4)C3)cc12 [Example 329] | < 100 | 100 to 1000 |
| Cc1ccc(-c2noc([C@H]3C[C@@H]3F)n2)cc1NC(=O)c1cnn2ccc(C#N)cc12 [Example 127] | 100 to 1000 | 100 to 1000 |
| CO[C@H]1C[C@@H](c2nc(-c3ccc(C)c(NC(=O)c4cnn5ccc(N6CC7(COC7)C6)cc45)c3)no2)C1 [Example 273] | 100 to 1000 | < 100 |
| Cc1ccc(-c2noc([C@H]3C[C@@H]3F)n2)cc1NC(=O)c1cnn2cc(F)c(-c3c(C)nn(CC(C)(C)O)c3C)cc12 [Example 164] | 100 to 1000 | 100 to 1000 |
| Cc1ccc(-c2noc([C@H]3C[C@@H]3F)n2)cc1NC(=O)c1cnn2ccc(N3CCO[C@@H](C)C3)cc12 [Example 215] | < 100 | < 100 |
| Cc1ccc(-c2ccc(C3CC3)cn2)cc1NC(=O)c1cnn2ccc(N3CC4(C3)CC(O)(C(F)F)C4)cc12 [Example 351] | < 100 | < 100 |
| Cc1ccc(-c2noc([C@H]3C[C@@H]3F)n2)cc1NC(=O)c1cnn2ccc(-c3nn[nH]n3)cc12 [Example 129] | 100 to 1000 | > 1000 |
| Cc1ccc(-c2noc([C@H]3C[C@@H]3F)n2)cc1NC(=O)c1cnn2ccc(N3CC4(CCN4)C3)cc12 [Example 239] | < 100 | 100 to 1000 |
| Cc1ccc(-c2noc([C@H]3C[C@@H]3F)n2)cc1NC(=O)c1cnn2cc(-c3cn(C4CC4)nn3)ccc12 [Example 114] | < 100 | < 100 |
| Cc1ccc(-c2nnc([C@H]3C[C@@H]3F)o2)cc1NC(=O)c1cnc(-c2ccc3c(c2)CC(=O)N3)o1 [Example 374] | 100 to 1000 | 100 to 1000 |
| Cc1ccc(-c2noc([C@H]3C[C@@H]3C(F)F)n2)cc1NC(=O)c1cnn2ccc(N3CC4(COC4)C3)cc12 [Example 278] | < 100 | < 100 |

| Structure (SMILES) | IC50 [1] [nM] | EC50 (M-07e cells) [nM] |
| --- | --- | --- |
| Cc1nc(C)c(-c2ccn3ncc(C(=O)Nc4cc(-c5noc([C@H]6C[C@@H]6F)n5)ccc4C)c3c2)s1 [Example 170] | < 100 | < 100 |
| Cc1ncc(-c2ccc(C3CC3)cn2)cc1NC(=O)c1cnn2ccc(N3CC4(COC4)C3)cc12 [Example 357] | 100 to 1000 | < 100 |
| Cc1ccc(-c2noc([C@H]3C[C@@H]3F)n2)cc1NC(=O)c1cnn2ccc(CO)cc12 [Example 72] | < 100 | 100 to 1000 |
| Cc1ccc(-c2ncc(C(F)F)cn2)cc1NC(=O)c1cnn2ccc(N3CC4(COC4)C3)cc12 [Example 344] | 100 to 1000 | < 100 |
| Cc1ccc(-c2ncc(C(F)(F)F)cn2)cc1NC(=O)c1cnn2ccc(N3CC4(COC4)C3)cc12 [Example 337] | 100 to 1000 | < 100 |
| Cc1ccc(-c2noc([C@H]3C[C@@H](OC(C)C)C3)n2)cc1NC(=O)c1cnn2ccc(N3CC4(CN(CC(F)(F)F)C4)C3)cc12 [Example 246] | 100 to 1000 | < 100 |
| Cc1ccc(-c2noc([C@H]3C[C@@H]3F)n2)cc1NC(=O)c1cnn2ccc(N3CC4(C3)CC4(F)F)cc12 [Example 217] | < 100 | < 100 |
| Cc1ccc(-c2noc([C@H]3C[C@H](OC(F)(F)F)C3)n2)cc1NC(=O)c1cnn2ccc(N3CC4(COC4)C3)cc12 [Example 245] | < 100 | < 100 |
| Cc1ccc(-c2noc([C@H]3C[C@@H]3F)n2)cc1NC(=O)c1cnc2sccn12 [Example 30] | < 100 | 100 to 1000 |
| Cc1ccc(-c2noc([C@H]3C[C@@H]3F)n2)cc1NC(=O)c1cnn2ccc(N3CCC4(CC3)CC(C)(O)C4)cc12 [Example 184] | < 100 | < 100 |
| Cc1ncc(-c2noc([C@H]3C[C@@H](OC(F)(F)F)C3)n2)cc1NC(=O)c1cnn2cc(-c3cn(C(F)F)nn3)ccc12 [Example 132-6] | 100 to 1000 | < 100 |
| Cc1ccc(-c2noc(C34CC(F)(C3)C4)n2)cc1NC(=O)c1cnn2ccc(N3CC4(COC4)C3)cc12 [Example 249] | < 100 | < 100 |
| Cc1ccc(-c2ncc(C3CC3)cn2)cc1NC(=O)c1cnn2ccc(N3CC4(C3)CC(O)(C(F)F)C4)cc12 [Example 339] | < 100 | < 100 |
| COc1ccc(-n2cc(C(=O)Nc3cc(-c4noc([C@H]5C[C@@H]5F)n4)ccc3C)cn2)cc1 [Example 52] | 100 to 1000 | 100 to 1000 |
| Cc1ncc(-c2noc(C3CC(F)(F)C3)n2)cc1NC(=O)c1cnn2cc(-c3cn(C(F)F)nn3)ccc12 [Example 132-7] | 100 to 1000 | 100 to 1000 |
| Cc1ccc(-c2noc([C@H]3C[C@H]3C(F)F)n2)cc1NC(=O)c1cnn2ccc(N3CC4(COC4)C3)cc12 [Example 276] | < 100 | < 100 |
